The test system of this assay is A2780_luc tumors. The assay can be described thus: 3rd in vivo study: A2780_luc orthotopic xenograft model. Further details: species or system female Balb/c nude mice. Particulars: vehicle 13 days; Kaplan-Meier, log-rank test. How it is done:
FIG. 14: The Kaplan-Meier survival curve of female nude mice implanted […] with A2780_luc tumors. N=8 for both groups initially. Statistical analysis was carried out using log-rank (Mantel-Cox) test.
All in vivo studies were performed using female Balb/c nude mice at age 5-8 weeks. Animals were imaged using an In Vivo Imaging System (IVIS, Newton 7.0, Vilber).
A2780_luc or A2780-cis_luc cells were orthotopically implanted into both ovaries of mice. 5 days after implant mice were imaged using IVIS and those with most similar bioluminescent intensity values were assigned to the following treatment groups: […]

Regarding `N.N.[Cl][Pt][Cl]` [cisplatin, Cisplatin], the median survival is given as 14.5 days.
